From patent US20090137527A1, “Compositions and methods for modulating immune function” (Resolvyx Pharmaceuticals, Inc., priority 2007, published 2009)

Assays:
[1] = tested on: lymph node cells from collagen-induced arthritis rats; assay: Ex vivo cytokine production in lymph node cells from CIA rats treated with compound; set-up: species or system rat
Method: Female Lewis rats were anesthetized with 3-5% isoflurane and arthritis was induced by intradermal injection of 0.3 mL (100 μL at three different sites) of an emulsion […] 1.5 mg/mL of type II bovine collagen, CII (Elastin Products Inc., Cat# CM276), in incomplete Freund's adjuvant (IFA) at the base of the tail on day 0 and 6. Control rats were injected with an equal amount of IFA only.
were measured under two different treatment regimens. In the first (prophylactic) treatment regimen, Compound X was administered i.v., twice daily, at 0.3 mg/kg from day 0 to day 6 or 10. For ex vivo studies, animals were euthanized on day 6 after the last injection and their inguinal lymph nodes were harvested. […] For ex vivo studies, animals were euthanized on day 16 and inguinal lymph nodes were harvested. Venous blood samples were collected during the course of treatment. For CD3 activation, 96-well flat bottom plates were coated with anti-CD3 mAb (eBioscience, clone G4.18) 1 μg/mL. Plates were stored overnight at 4° C., and were subsequently rinsed with PBS once before use. Bovine Type II collagen for tissue culture was purchased from Chondrex (Cat# 2022) and was reconstituted according to the manufacturer's instructions. All data were processed and analyzed by t-test using GraphPad Prism software.
Treatment regimen one was used (n=3). Animals were treated with Compound X from day 0 to day 6, were sacrificed on day 6, and freshly harvested lymph nodes were pressed through a nylon strainer (BD Falcon Cat# 352340) to obtain a single cell suspension. Cells were washed and resuspended in RPMI 1640/10% FCS at 4×10^6/mL. In U-bottom 96-well plates, 100 μL or 4×10^5 cells and 100 μL of collagen at 25 or 50 μg/mL final concentrations were added. Plates were incubated in a 37° C., 5% CO2 incubator overnight. Supernatants were harvested, and rat cytokines were measured with Bioplex (BioRad).
In FIG. 2A, animals were given compound X from Day 0 to Day 6 (treatment regimen one). In FIG. 2B, animals were given compound X from day 8 to day 16 (treatment regimen two).
In FIG. 3A, animals were given compound X from Day 0 to Day 6 (treatment regimen one). In FIG. 3B, animals were given compound X from day 8 to day 16 (treatment regimen two). Freshly harvested lymph nodes were pressed through a nylon strainer (BD Falcon Cat# 352340) to obtain a single cell suspension. Cells were washed and resuspended in RPMI 1640/10% FCS at 4×10^6/mL. To anti-CD3 coated plates were added 4×10^5 cells per well and 100 μL RPMI 1640/10% FCS media. The plates were incubated in a 37° C., 5% CO2 incubator for three days (FIG. 3A) or overnight (FIG. 3B). Rat IL-17 was measured with a kit from Millipore (Cat# RCYTO-18K-01) following the manufacturer's instructions.

[2] = tested on: murine DNFB-induced DTH model; assay: DNFB-induced delayed-type-hypersensitivity (DTH) model, ear swelling; format: in vivo, mouse
Method: Ear-swelling (swelling of the skin on the pinnae) was the endpoint of this model. This study was carried out over 6 to 7 days, with events occurring as described below.
Mice (female BALB/c; n=10/group) were immunized with 0.5% of DNFB dissolved in acetone/olive oil. Sensitization was done with the contact allergen, wherein 20 μL of the solution was placed on the footpads of the animals.
[…] The mice were challenged at day 5. 10 μL of a 0.8% DNFB solution was topically applied externally on the right ear of the animal. As control, the left ear was treated the same way with vehicle alone (acetone/olive oil).
Animals were anesthetized with isoflurane and the ear swelling was measured within 24 to 48 hours after challenge using a micrometer. The micrometer calipers were closed around the top portion of the each external ear until resistance from the ear was felt. […]

spleen cells = assay: In vitro treatment of mouse spleen cells, CD3-induced cytokine production; format: cell-based; settings: 10 nM or 1000 nM, 5 days culture, then anti-CD3 overnight
Method: BALB/c female mice, 6-8 weeks old, were euthanized and spleens were removed under sterile conditions. Spleens were gently pressed through a nylon strainer. Spleen cells and remaining connective tissue mass were incubated in a 6-well plate with 4 mL of Growth Media (RPMI 1640 supplemented with 10% FCS). Compound X was added to give a final concentration of 10 nM or 1000 nM. Control groups were spleen cells without addition of Compound X. All groups were in triplicates (3 animals per group). Plates were cultured in a 37° C., 5% CO2 incubator. Once a day, 1 mL of culture media was removed from each well and replaced with 1 mL fresh growth media containing the same concentration of Compound X or fresh media only. Culture was continued for 5 days. All cells were then removed from the plates. Cells were passed through a nylon strainer to remove any aggregates, washed, counted and adjusted to 2.5×10^6/mL in growth media. To anti-CD3 coated plates (coated per the procedure described below) were added 200 μL, or 5×10^5 cells per well. Cells were cultured in a 37° C., 5% CO2 incubator overnight. Supernatants were harvested, and cytokine levels were measured by Bioplex.
For CD3 stimulation, anti-mouse CD3 mAb (BD Pharmingen clone 145-2C11) was used at 0.2 μg/mL in PBS to coat flat bottom 96-well plate at 4° C. overnight. Plates were rinsed twice with PBS before use.

[3] = two treatment regimens: day 0 to day 6, or day 8 to day 16, 0.3 mg/kg i.v. twice daily

Question: For `CC[C@@H](O)/C=C/C=C\C[C@@H](O)/C=C/C=C/C=C\[C@@H](O)CCCC(=O)O` [Compound X], which “ex vivo IFN-γ and TNFα production in lymph node cells” value ([1]; 0.3 mg/kg i.v. twice daily day 0 to day 6, collagen 25 or 50 μg/mL overnight) is on record?
Answer: inhibited

Question: And the “reduction of collagen- or CD3-induced IFNγ, TNFα and IL-17 secretion from draining lymph node cells” value ([1]; treated animals compared to controls)?
Answer: 60-90%

Question: What about the “ex vivo anti-CD3 mAb-induced IL-17 production in lymph node cells” value [1, 3] of the same compound?
Answer: inhibited

Question: What about the “ex vivo collagen-induced IFN-γ production in lymph node cells” value [1, 3] of the same compound?
Answer: inhibited

Question: What about the “maximal efficacy, inhibition of tissue (ear) swelling” value ([2]; 30 μg/kg i.v., 15 minutes before challenge, ear thickness 24 hours after challenge) of the same compound?
Answer: 38%

Question: And the “inhibition of the DTH response, Compound X versus dexamethasone” value ([2]; dexamethasone 60 minutes prior to DNFB challenge)?
Answer: comparable levels of inhibition

Question: What about the “DNFB-DTH response, two regimens” value ([2]; i.p. 0.03 mg/kg once daily day 0 to day 5, or single injection on day 5) of the same compound?
Answer: comparable and significant reduction

Question: What about the “tissue swelling, dose dependence” value ([2]; i.v., 15 minutes before challenge) of the same compound?
Answer: dose-dependently reduced

Question: And the “CD3-induced cytokine production of spleen cells after in vitro treatment” value (spleen cells)?
Answer: inhibited
